Test results taken from US20250012803A1, “METHODS FOR ASSESSING AN IMMUNE RESPONSE AND PREDICTING CANCER RECURRENCE AND ASSESSMENT OF CURRENT AND PRIOR CANCER STATUS” (priority 2021, published 2025).
Several values for one entry are separate records, joined by “and”; a condition that tells them apart may be missing. Identical values can stand only once.

Assays:
Format in all cases: in vivo, human
[1] = tested on: breast cancer patients (DTH immune response to GP2); experiment: Delayed type hypersensitivity (DTH) skin test to GP2
Method: (§1) Methods: Consented patients were randomized and scheduled to receive GLSI-100 (500 microgram (mcg) GP2: 125 mcg GM-CSF) or control (GM-CSF only) via 6 intradermal injections every 3-4 weeks as part of the Primary Immunization Series (PIS) for the first 6 months and 4 booster intradermal injections every 6 months thereafter. […] DTH skin tests were assessed at baseline and after the 6th dose with the orthogonal mean of each skin reaction measured 48-72 hours after injection using the sensitive ballpoint-pen method.
A DTH reaction was used to assess in vivo immune responses in patients (n=150) prior to exposure to study medication and after 6 months of the first dose. The DTH orthogonal mean was measured 48-72 hours after injection using the sensitive ballpoint-pen method. DTH reactions after the PIS were greater compared to baseline DTH reactions.
A DTH reaction was used to assess in vivo immune responses in patients (n=150) prior to exposure to study medication and after 6 months of the first dose. The DTH orthogonal mean was measured 48-72 hours after injection using the sensitive ballpoint-pen method. GP2 DTH response increases in patients after treatment with GLSI-100.
Injection site reactions (ISR) were measured 48-72 hours after injection. Delayed-type hypersensitivity (DTH) to GP2 was performed at baseline and after 6 months of treatment. For the DTH test, 0.5 mL consisting of 100 mcg of GP2 reconstituted in bacteriostatic saline for injection was placed intradermally. The DTH reaction was measured 48-72 hours after injection.
The orthogonal mean of the largest diameter of the injection site was measured 48-72 hours after injection. A DTH reaction was used to assess in vivo immune responses in patients prior to exposure to study medication and after 6 months of the first dose. The DTH orthogonal mean was measured 48-72 hours after DTH placement using the sensitive ballpoint-pen method. DTH reactions increase after the PIS compared to baseline DTH reactions.
GP2 DTH skin tests were placed at baseline and after the 6th dose. After 48-72 hours, the largest perpendicular diameters of induration were measured and the orthogonal mean was calculated. Induration of over 5 mm was considered a positive response. The relationship between prognostic factors such as demographic and disease characteristics and the baseline DTH response were investigated by logistic regression.

[2] = tested on: node-positive and high-risk node-negative breast cancer patients with tumors expressing any degree of HER2; experiment: Phase IIb trial (NCT00524277): disease-free survival / breast cancer recurrence
Method: Background for Examples 1-5: Delayed type hypersensitivity (DTH) skin tests in the randomized, active-controlled, single-blinded, multicenter Phase IIb trial investigating GLSI-100 (GP2+GM-CSF) administered in the adjuvant setting to node-positive and high-risk node-negative breast cancer patients with tumors expressing any degree of HER2 (immuno-histochemistry [IHC] 1-3+) (NCT00524277) were analyzed. The trial enrolled HLA-A*02 patients randomized to receive GLSI-100 versus GM-CSF alone. The trial's primary objective was to determine if treatment with GLSI-100, a HER2-derived peptide, reduces recurrence rates.
as §1
Results: The study enrolled 180 patients across 16 clinical sites with both HER2 3+ positive and low HER2 expressors (1-2+). […] Injection site reactions were common, occurring in almost 100% of patients treated with either GLSI-100 or GM-CSF alone. […]

[3] = tested on: breast cancer patients (injection site); experiment: Injection site reaction (ISR) measurement, orthogonal mean
breast cancer patients = experiment: Phase IIb trial safety / tolerability; conditions: patients treated with either GLSI-100 or GM-CSF alone
Method: as §1
Results: The study enrolled 180 patients across 16 clinical sites with both HER2 3+ positive and low HER2 expressors (1-2+). […] Injection site reactions were common, occurring in almost 100% of patients treated with either GLSI-100 or GM-CSF alone. Previous publications have reported the increase in DTH response reported among patients after treatment with GLSI-100.

Row | Substance | patients reacting to GP2 at baseline (positive DTH, induration of 5 mm or greater) ([1]; baseline, prior to any GP2 treatment, all patients (33/145)) [%] | patients with positive baseline DTH response to GP2 in subgroup with later breast cancer recurrence ([1]; baseline, recurrence subgroup (8/22)) [%] | 6 Month DTH (mm) ([1]; individual recurring patients, after 6 months of treatment) | Baseline DTH (mm) ([1]; individual recurring patients, prior to exposure to study medication) | Time to Recurrence ([2]; individual patients who experienced breast cancer recurrence) | DTH reaction after the Primary Immunization Series (orthogonal mean) ([1]; after 6 months, measured 48-72 hours after injection, p=0.009) [mm] | median orthogonal mean induration of injection site reaction ([3]; after a single dose, p=0.0036) [mm] | average difference in injection site reaction, HER2 3+ vs HER2 1-2+ control patients ([3]; over all 10 doses, HER2 3+ smaller) [mm] | Kaplan-Meier estimated 5-year disease-free survival (DFS) rate ([2]; HER2 3+ patients followed 6 months or more and disease-free over first 6 months, 5 years follow-up, p=0.0338) [%] | patients with injection site reactions (breast cancer patients) [%]
1 | Ile Ile Ser Ala Val Val Gly Ile Leu (IISAVVGIL) [GP2] | 22.8 | 36.4 | 24 mm and 20 mm and 16 mm and 15 mm and 3 mm and 0 mm and 25 mm | 9 mm and 8 mm and 7 mm and 0 mm (8×) and 43 mm and 13 mm | 28 days and 99 days and 66 days and 820 days and 265 days and 498 days and 507 days and 366 days and 590 days and 141 days and 79 days and 76 days and 1295 days | – | – | – | – | –
2 | granulocyte-macrophage colony-stimulating factor [GM-CSF] | – | – | – | – | – | 0.0 | 7.8 | 43.1 | 89.4 | ~100
